The test system of this data set is rat primary cardiomyocytes. Put plainly: ROS production (DCF-DA) in rat primary cardiomyocytes. Format: cell-based. As for the experimental part:
Neonatal rat ventricular cardiomyocytes were isolated and cultured in collagen coated culture dishes as described by Shalitin et al., 1996. Growth medium contained DMEM:Ham's F12 (1:1), fetal calf serum (10%) and antibiotics. Treatment was administered to spontaneously beating cardiomyocytes 48 hours after plating.

Each structure is given as a SMILES string.

For `CCCC(CCC)C(=O)Nc1nc2c(ncn2COCCOC(=O)C(CCC)CCC)c(=O)[nH]1` [Compound 6, N-valproyl-9-(2-valproyloxy)ethoxymethylguanine], the “production of reactive oxygen radicals (ROS)” value (4 hours) is “did not increase production of reactive oxygen radicals”. In addition, under “combined with 2 μM Dox”, the “effect on ROS production induced by Dox” value is “prevented the formation of ROS”.

The values are drawn from patent US9334272B2, “Derivatives of purinic and pyrimidinic antiviral agents and use thereof as potent anticancer agents” (Ramot at Tel-Aviv University Ltd., priority 2007, dated 2016).
